Measured values published in patent publication US20260125382A1, “COMPOUNDS FOR INHIBITING OR DEGRADING CDK2 AND/OR CDK9 AND MEDICINAL USE THEREOF” (KOREA RESEARCH INSTITUTE OF CHEMICAL TECHNOLOGY, priority 2022, published 2026).

Experiments:
[1] = target: T1, CDK2 (Homo sapiens, UniProt P24941); assay: CDK protein degradation activity (Western blotting), CDK2; format: cell-based; conditions: MDA-MB-231 cells, 16 hours, Western blot
T1 construct: endogenous in cells; host or cells: MDA-MB-231
Outline: (§1)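 Seed MDA-MB-231 cells; next day add compound to 100 nM, 1 μM or 10 μM final, or DMSO. After 16 h, harvest and lyse in Triton X-100 buffer, run SDS-PAGE, probe for CDK2, CDK9 and tubulin.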

[2] = target: T2, CDK9 (Homo sapiens, UniProt P50750); assay: CDK protein degradation activity (Western blotting), CDK9; format: cell-based; conditions: MDA-MB-231 cells, 16 hours, Western blot
T2 construct: endogenous in cells; host or cells: MDA-MB-231
T2 sequence (P50750 whole entry): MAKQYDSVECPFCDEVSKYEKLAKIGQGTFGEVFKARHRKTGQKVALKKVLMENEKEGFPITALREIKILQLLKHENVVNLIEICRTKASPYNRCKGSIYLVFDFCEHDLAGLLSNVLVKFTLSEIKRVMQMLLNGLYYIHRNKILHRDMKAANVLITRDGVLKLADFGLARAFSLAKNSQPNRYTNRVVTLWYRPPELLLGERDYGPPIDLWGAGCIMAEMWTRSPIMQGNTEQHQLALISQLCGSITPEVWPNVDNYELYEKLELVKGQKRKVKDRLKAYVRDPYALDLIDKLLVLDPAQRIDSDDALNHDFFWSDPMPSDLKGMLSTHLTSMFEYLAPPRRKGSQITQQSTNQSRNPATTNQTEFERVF
Outline: as §1

| Enzyme degradation CDK2 (% remaining) @ 0.1 μM [1] | Enzyme degradation CDK2 (% remaining) @ 1 μM [1] | Enzyme degradation CDK2 (% remaining) @ 10 μM [1] | Enzyme degradation CDK9 (% remaining) @ 0.1 μM [2] | Enzyme degradation CDK9 (% remaining) @ 1 μM [2] | Enzyme degradation CDK9 (% remaining) @ 10 μM [2] | Structure (SMILES) |
| --- | --- | --- | --- | --- | --- | --- |
| 30% | 10% | 10% | 80% | 20% | 0% | O=C1CC[C@H](N2C(=O)c3cc(F)c(N4CCN(CCCC5CCN(c6ccc(Nc7ncnc8c7ncn8[C@H]7C[C@@H](NC(=O)Cc8ccccc8)C7)cc6)CC5)CC4)cc3C2=O)C(=O)N1 [Compound 348, N-((1s,3s)-3-(6-((4-(4-(3-(4-(2-(2,6-dioxopiperidin-3-yl)-6-fluoro-1,3-dioxoisoindolin-5-yl)piperazin-1-yl)propyl)piperidin-1-yl)phenyl)amino)-9H-purin-9-yl)cyclobutyl)-2-phenylacetamide] |
| 0/0/0% | 0/0/0% | 0/0/0% | 30% | 20% | 20% | O=C1CC[C@H](n2nnc3ccc(N4CCN(CCCC5CCN(c6ccc(Nc7ncnc8c7ncn8C7CC(NC(=O)Cc8ccccc8)C7)cc6)CC5)CC4)cc3c2=O)C(=O)N1 (stereo partly drawn) [Compound 349, N-((1s,3s)-3-(6-((4-(4-(3-(4-(3-(2,6-dioxopiperidin-3-yl)-4-oxo-3,4-dihydrobenzo[d][1,2,3]triazin-6-yl)piperazin-1-yl)propyl)piperidin-1-yl)phenyl)amino)-9H-purin-9-yl)cyclobutyl)-2-phenylacetamide] |
| 30/30/30% | 30/30/30% | 30/30/30% | 50% | 30% | 30% | O=C1CCC(N2C(=O)c3ccc(N4CCC(C(=O)N5CC(N6CCN(c7ccc(Nc8ncnc9c8ncn9[C@H]8C[C@@H](NC(=O)Cc9ccccc9)C8)cc7)CC6)C5)CC4)cc3C2=O)C(=O)N1 (stereo partly drawn) [Compound 350, N-((1s,3s)-3-(6-((4-(4-(1-(1-(2-(2,6-dioxopiperidin-3-yl)-1,3-dioxoisoindolin-5-yl)piperidin-4-carbonyl)azetidin-3-yl)piperazin-1-yl)phenyl)amino)-9H-purin-9-yl)cyclobutyl)-2-phenylacetamide] |
| 20% | 10% | 10% | 10/10/10% | 10/10/10% | 10/10/10% | O=C1CC[C@H](n2nnc3ccc(N4CCC(CCCN5CCN(c6ccc(Nc7ncnc8c7ncn8C7CC(NC(=O)Cc8ccccc8)C7)cc6)CC5)CC4)cc3c2=O)C(=O)N1 (stereo partly drawn) [Compound 351, N-((1s,3s)-3-(6-((4-(4-(3-(1-(3-(2,6-dioxopiperidin-3-yl)-4-oxo-3,4-dihydrobenzo[d][1,2,3]triazin-6-yl)piperidin-4-yl)propyl)piperazin-1-yl)phenyl)amino)-9H-purin-9-yl)cyclobutyl)-2-phenylacetamide] |
| 90% | 70% | 70% | 20/20/20% | 20/20/20% | 20/20/20% | O=C1CC[C@H](N2C(=O)c3ccc(N4CC(C(=O)N5CCC6(CC5)CC(N5CCN(c7ccc(Nc8ncnc9c8ncn9[C@H]8C[C@@H](NC(=O)Cc9ccccc9)C8)cc7)CC5)C6)C4)cc3C2=O)C(=O)N1 [Compound 352, N-((1s,3s)-3-(6-((4-(4-(7-(1-(2-(2,6-dioxopiperidin-3-yl)-1,3-dioxoisoindolin-5-yl)azetidin-3-carbonyl)-7-azaspiro[3.5]nonan-2-yl)piperazin-1-yl)phenyl)amino)-9H-purin-9-yl)cyclobutyl)-2-phenylacetamide] |
| 70% | 40% | 40% | 10/10/10% | 10/10/10% | 10/10/10% | O=C1CC[C@H](N2C(=O)c3ccc(N4CCC(C(=O)N5CCC6(CC5)CC(N5CCN(c7ccc(Nc8ncnc9c8ncn9C8CC(NC(=O)Cc9ccccc9)C8)cc7)CC5)C6)CC4)cc3C2=O)C(=O)N1 (stereo partly drawn) [Compound 353, N-((1s,3s)-3-(6-((4-(4-(7-(1-(2-(2,6-dioxopiperidin-3-yl)-1,3-dioxoisoindolin-5-yl)piperidin-4-carbonyl)-7-azaspiro[3.5]nonan-2-yl)piperazin-1-yl)phenyl)amino)-9H-purin-9-yl)cyclobutyl)-2-phenylacetamide] |
| 50% | 50% | 60% | 10/10/10% | 10/10/10% | 10/10/10% | O=C1CC[C@H](N2C(=O)c3ccc(N4CCC(C(=O)N5CCC(CCCN6CCN(c7ccc(Nc8ncnc9c8ncn9C8CC(NC(=O)Cc9ccccc9)C8)cc7)CC6)CC5)CC4)cc3C2=O)C(=O)N1 (stereo partly drawn) [Compound 354, N-((1s,3s)-3-(6-((4-(4-(3-(1-(1-(2-(2,6-dioxopiperidin-3-yl)-1,3-dioxoisoindolin-5-yl)piperidin-4-carbonyl)piperidin-4-yl)propyl)piperazin-1-yl)phenyl)amino)-9H-purin-9-yl)cyclobutyl)-2-phenylacetamide] |
| 70% | 60% | 60% | 10% | 0% | 0% | Cc1cccc(C(=O)NC2CC(n3cnc4c(NCCC5CCN(CC6CCN(C(=O)C7CCN(c8ccc9c(c8)C(=O)N([C@H]8CCC(=O)NC8=O)C9=O)CC7)CC6)CC5)ncnc43)C2)n1 (stereo partly drawn) [Compound 355, N-((1s,3s)-3-(6-((2-(1-((1-(1-(2-(2,6-dioxopiperidin-3-yl)-1,3-dioxoisoindolin-5-yl)piperidin-4-carbonyl)piperidin-4-yl)methyl)piperidin-4-yl)ethyl)amino)-9H-purin-9-yl)cyclobutyl)-6-methylpicolinamide] |
| 70% | 20% | 20% | 80% | 30% | 30% | O=C1CC[C@H](n2nnc3ccc(N4CCN(C5CCN(c6ccc(Nc7ncnc8c7ncn8C7CC(NC(=O)Cc8ccccc8)C7)cc6)CC5)CC4)cc3c2=O)C(=O)N1 (stereo partly drawn) [Compound 357, N-((1s,3s)-3-(6-((4-(4-(4-(3-(2,6-dioxopiperidin-3-yl)-4-oxo-3,4-dihydrobenzo[d][1,2,3]triazin-6-yl)piperazin-1-yl)piperidin-1-yl)phenyl)amino)-9H-purin-9-yl)cyclobutyl)-2-phenylacetamide] |
| 20% | 10% | 10% | 50% | 10% | 10% | O=C1CC[C@H](N2C(=O)c3ccc(N4CCC(C(=O)N5CCN(C6CC7(CCN(c8ccc(Nc9ncnc%10c9ncn%10[C@H]9C[C@@H](NC(=O)Cc%10ccccc%10)C9)cc8)CC7)C6)CC5)CC4)cc3C2=O)C(=O)N1 [Compound 361, N-((1s,3s)-3-(6-((4-(2-(4-(1-(2-(2,6-dioxopiperidin-3-yl)-1,3-dioxoisoindolin-5-yl)piperidin-4-carbonyl)piperazin-1-yl)-7-azaspiro[3.5]nonan-7-yl)phenyl)amino)-9H-purin-9-yl)cyclobutyl)-2-phenylacetamide] |
| 90% | 80% | 70% | 40% | 0% | 0% | O=C1CC[C@H](N2C(=O)c3ccc(N4CC(C(=O)N5CCN(CCC6CCN(c7ccc(Nc8ncnc9c8ncn9[C@H]8C[C@@H](NC(=O)Cc9ccccc9)C8)cc7)CC6)CC5)C4)cc3C2=O)C(=O)N1 [Compound 362, N-((1s,3s)-3-(6-((4-(4-(2-(4-(1-(2-(2,6-dioxopiperidin-3-yl)-1,3-dioxoisoindolin-5-yl)azetidin-3-carbonyl)piperazin-1-yl)ethyl)piperidin-1-yl)phenyl)amino)-9H-purin-9-yl)cyclobutyl)-2-phenylacetamide] |
| 100% | 50% | 30% | 40% | 0% | 0% | O=C1CC[C@H](N2C(=O)c3ccc(N4CCC(C(=O)N5CCN(CCC6CCN(c7ccc(Nc8ncnc9c8ncn9[C@H]8C[C@@H](NC(=O)Cc9ccccc9)C8)cc7)CC6)CC5)CC4)cc3C2=O)C(=O)N1 [Compound 363, N-((1s,3s)-3-(6-((4-(4-(2-(4-(1-(2-(2,6-dioxopiperidin-3-yl)-1,3-dioxoisoindolin-5-yl)piperidin-4-carbonyl)piperazin-1-yl)ethyl)piperidin-1-yl)phenyl)amino)-9H-purin-9-yl)cyclobutyl)-2-phenylacetamide] |
